Our source for the IC50 values is patent US9556179B2 (BRISTOL-MYERS SQUIBB COMPANY, priority 2012, dated 2017).

One test addresses CK1ε (Homo sapiens (Human), UniProt P49674). Briefly: CK1ε kinase assay (Caliper LABCHIP electrophoretic separation of fluoresceinated peptide substrate and product). It is filed as biochemical. Particulars: 200 pM enzyme, 50 μM ATP, 22 hours at room temperature. On the procedure:
(§1) CK1ε and CK1δ Kinase Assays
(§2) The kinase assay was performed in V-bottom 384-well plates. […] The reaction was incubated at room temperature for 22 hours and terminated by adding 45 μl of 35 mM EDTA to each sample. The reaction mixture was analyzed on the Caliper LABCHIP®3000 (Caliper, Hopkinton, Mass.) by electrophoretic separation of the unphosphorylated substrate and phosphorylated product. […] Compounds were dissolved at 10 mM in dimethylsulfoxide (DMSO) and evaluated at eleven concentrations. IC50 values were derived by non-linear regression analysis.

In another test the target is CK1δ (Homo sapiens (Human), UniProt P48730). Briefly: CK1δ kinase assay (Caliper LABCHIP electrophoretic separation of fluoresceinated peptide substrate and product). The format is biochemical. Particulars: 200 pM enzyme, 50 μM ATP, 22 hours at room temperature. On the procedure:
as §1, §2

CK1ε, sequence (P49674 whole entry): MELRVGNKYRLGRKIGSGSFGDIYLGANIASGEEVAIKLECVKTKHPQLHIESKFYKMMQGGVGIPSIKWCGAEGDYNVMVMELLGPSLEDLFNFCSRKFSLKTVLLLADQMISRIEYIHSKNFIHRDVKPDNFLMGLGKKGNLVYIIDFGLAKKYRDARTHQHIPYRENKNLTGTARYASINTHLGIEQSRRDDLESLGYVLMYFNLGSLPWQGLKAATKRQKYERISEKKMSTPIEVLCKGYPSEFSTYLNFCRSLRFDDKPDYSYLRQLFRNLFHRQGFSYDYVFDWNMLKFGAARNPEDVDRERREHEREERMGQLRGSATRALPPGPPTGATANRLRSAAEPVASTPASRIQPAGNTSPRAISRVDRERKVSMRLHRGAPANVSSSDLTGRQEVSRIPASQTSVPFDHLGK
CK1δ, sequence (P48730 whole entry): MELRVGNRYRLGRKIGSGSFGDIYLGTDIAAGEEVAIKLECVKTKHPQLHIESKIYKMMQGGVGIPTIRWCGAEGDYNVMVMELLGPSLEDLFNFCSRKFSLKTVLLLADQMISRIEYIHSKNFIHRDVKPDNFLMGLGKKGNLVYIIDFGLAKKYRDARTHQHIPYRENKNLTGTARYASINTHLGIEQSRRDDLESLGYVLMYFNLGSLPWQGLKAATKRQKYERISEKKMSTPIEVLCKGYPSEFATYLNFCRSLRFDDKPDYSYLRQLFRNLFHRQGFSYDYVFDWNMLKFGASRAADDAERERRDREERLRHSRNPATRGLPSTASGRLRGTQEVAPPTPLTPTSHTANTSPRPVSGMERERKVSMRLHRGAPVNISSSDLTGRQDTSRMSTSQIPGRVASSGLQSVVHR

For the molecule `Cn1cnc(-c2ccc(F)cc2)c1-c1ccc2nc(NC(=O)c3ccnc(F)c3)cn2n1` [Compound 231, 2-fluoro-N-(6-(4-(4-fluorophenyl)-1-methyl-1H-imidazol-5-yl)imidazo[1,2-b]pyridazin-2-yl) isonicotinamide], the 50% inhibitory concentration (IC50) against CK1ε came out at 2.91 nM; against CK1δ, 0.417 nM.
The like results for `O=C(Nc1cn2nc(-c3c(-c4ccc(F)cc4)nc4n3CCOC4)ccc2n1)c1ccncc1` [Compound 448, N-(6-(2-(4-Fluorophenyl)-6,8-dihydro-5H-imidazo[2,1-c][1,4]oxazin-3-yl)imidazo[1,2-b]pyridazin-2-yl)isonicotinamide] were, in that order, 3.6 nM and 0.4 nM.
The like results for `Cc1nc(-c2ccc(F)cc2)c(-c2ccc3nc(NC(=O)c4ccnc(F)c4)cn3n2)n1CCF` [Compound 288, 2-Fluoro-N-(6-(1-(2-fluoroethyl)-4-(4-fluorophenyl)-2-methyl-1H-imidazol-5-yl)imidazo[1,2-b]pyridazin-2-yl)isonicotinamide] were, in that order, 0.222 nM and 0.11 nM.
The like results for `Cc1cc(-c2nc(C)n(C)c2-c2ccc3nc(NC(=O)c4ccnc(F)c4)cn3n2)ccc1F` [Compound 298, 2-fluoro-N-(6-(4-(4-fluoro-3-methylphenyl)-1,2-dimethyl-1H-imidazol-5-yl)imidazo[1,2-b]pyridazin-2-yl)isonicotinamide] were, in that order, 5.29 nM and 0.714 nM.
On to `O=C(Nc1cn2nc(-c3c(-c4ccc(F)cc4)nc(C4CC4)n3C3CCNCC3)ccc2n1)c1ccnc(F)c1` [Compound 119, N-(6-(2-cyclopropyl-4-(4-fluorophenyl)-1-(piperidin-4-yl)-1H-imidazol-5-yl)imidazo[1,2-b]pyridazin-2-yl)-2-fluoroisonicotinamide], for which the concentration for half-maximal inhibition (IC50) against CK1ε was 8.27 nM; at CK1δ, 1.21 nM.
The like results for `O=C(Nc1cn2nc(-c3c(-c4ccc(F)cc4)ncn3C3CCN(C(=O)CC(F)(F)F)CC3)ccc2n1)c1ccnc(N2CCOCC2)c1` [Compound 108, N-(6-(4-(4-fluorophenyl)-1-(1-(3,3,3-trifluoropropanoyl)piperidin-4-yl)-1H-imidazol-5-yl)imidazo[1,2-b]pyridazin-2-yl)-2-morpholinoisonicotinamide] were, in that order, 3.3 nM and 0.306 nM.
The like results for `Cc1nocc1C(=O)Nc1cn2nc(-c3c(-c4ccc(F)cc4)nc(C)n3C)ccc2n1` [Compound 361, N-(6-(4-(4-fluorophenyl)-1,2-dimethyl-1H-imidazol-5-yl)imidazo[1,2-b]pyridazin-2-yl)-3-methyl-4-isoxazole-carboxamide] were, in that order, 1260 nM and 74.8 nM.
The like results for `O=C(Nc1cn2nc(-c3c(-c4ccc(F)cc4)nc4n3CCN(C(=O)C3(C(F)(F)F)CCC3)C4)ccc2n1)c1ccnc(F)c1` [Compound 467, 2-Fluoro-N-(6-(2-(4-fluorophenyl)-7-(1-(trifluoromethyl)cyclobutanecarbonyl)-5,6,7,8-tetrahydroimidazo[1,2-a]pyrazin-3-yl)imidazo[1,2-b]pyridazin-2-yl)isonicotinamide] were, in that order, 6.1 nM and 0.8 nM.
Consider `Cc1cc(C(=O)Nc2cn3nc(-c4c(-c5ccc(F)cc5)nc(C)n4C)ccc3n2)nn1C` [Compound 369, N-(6-(4-(4-fluorophenyl)-1,2-dimethyl-1H-imidazol-5-yl)imidazo[1,2-b]pyridazin-2-yl)-1,5-dimethyl-1H-pyrazole-3-carboxamide], for which the figures for the IC50 on CK1ε and against CK1δ were 8.74 nM and 1.41 nM, respectively.
The like results for `COCCN1CCC(n2c(C)nc(-c3ccc(F)cc3)c2-c2ccc3nc(NC(=O)c4ccnc(F)c4)cn3n2)CC1` [Compound 141, 2-fluoro-N-(6-(4-(4-fluorophenyl)-1-(1-(2-methoxyethyl)piperidin-4-yl)-2-methyl-1H-imidazol-5-yl)imidazo [1,2-b]pyridazin-2-yl) isonicotinamide] were, in that order, 16 nM and 1.03 nM.
On the same counts, the results for `N#Cc1ccc(-c2nc(C(F)(F)F)c(C(=O)Nc3cn4nc(-c5c(-c6ccc(F)cc6)nc6ccccn56)ccc4n3)s2)cc1` [Compound 190, 2-(4-cyanophenyl)-N-(6-(2-(4-fluorophenyl)imidazo [1,2-a]pyridin-3-yl)imidazo [1,2-b]pyridazin-2-yl)-4-(trifluoromethyl)thiazole-5-carboxamide] are 6.05 nM and 4.77 nM.
The like results for `N#CCC(=O)Nc1cn2nc(-c3c(-c4ccc(F)cc4)ncn3CCN3CCOCC3)ccc2n1` [Compound 164, 2-cyano-N-(6-(4-(4-fluorophenyl)-1-(2-morpholinoethyl)-1H-imidazol-5-yl)imidazo [1,2-b]pyridazin-2-yl) acetamide] were, in that order, 67.3 nM and 4.37 nM.
Consider `Cc1nc(-c2ccc(Cl)cc2)c(-c2ccc3nc(NC(=O)c4ccnc(F)c4)cn3n2)n1CC(F)F` [Compound 294, N-(6-(4-(4-chlorophenyl)-1-(2,2-difluoroethyl)-2-methyl-1H-imidazol-5-yl)imidazo[1,2-b]pyridazin-2-yl)-2-fluoroiso-nicotinamide], for which the IC50 at CK1ε came out at 4.03 nM; on CK1δ, 0.208 nM.
The like results for `O=C(Nc1cn2nc(-c3c(-c4ccc(F)cc4)ncn3C3CCN(C(=O)c4ccon4)CC3)ccc2n1)c1ccncc1` [Compound 5, N-(6-(4-(4-fluorophenyl)-1-(1-(isoxazole-3-carbonyl)piperidin-4-yl)-1H-imidazol-5-yl)imidazo[1,2-b]pyridazin-2-yl)isonicotinamide] were, in that order, 1.42 nM and 0.379 nM.
On the same counts, the results for `Cc1nc(-c2ccc(F)cc2)c(-c2ccc3nc(NC(=O)C(C)(C)C)cn3n2)n1C` [Compound 414, N-(6-(4-(4-Fluorophenyl)-1,2-dimethyl-1H-imidazol-5-yl)imidazo[1,2-b]pyridazin-2-yl)pivalamide] are 4.35 nM and 0.438 nM.
On the same counts, the results for `O=C(Nc1cn2nc(-c3c(-c4ccc(F)cc4)ncn3CCN3CCOCC3)ccc2n1)c1cc(F)nc(F)c1` [Compound 162, 2,6-difluoro-N-(6-(4-(4-fluorophenyl)-1-(2-morpholinoethyl)-1H-imidazol-5-yl)imidazo[1,2-b]pyridazin-2-yl)isonicotinamide] are 2.42 nM and 0.311 nM.
Regarding `O=C(Nc1cn2nc(-c3c(-c4ccc(F)cc4)ncn3C3CCN(C[C@H](O)C(F)(F)F)CC3)ccc2n1)c1cncs1` [Compound 118, (S)—N-(6-(4-(4-fluorophenyl)-1-(1-(3,3,3-trifluoro-2-hydroxypropyl)piperidin-4-yl)-1H-imidazol-5-yl)imidazo[1,2-b]pyridazin-2-yl)thiazole-5-carboxamide], the figures for the IC50 at CK1ε and at CK1δ were 0.182 nM and 0.194 nM, respectively.
On the same counts, the results for `O=C(Nc1cn2nc(-c3c(-c4ccc(F)cc4)ncn3C3CCN(C(=O)OCC(F)(F)F)CC3)ccc2n1)c1ccnc(F)c1` [Compound 85, 2,2,2-trifluoroethyl 4-(5-(2-(2-fluoroisonicotinamido)imidazo[1,2-b]pyridazin-6-yl)-4-(4-fluorophenyl)-1H-imidazol-1-yl)piperidine-1-carboxylate] are 2.34 nM and 0.309 nM.
In the case of `Cc1nc(-c2ccc(F)cc2)c(-c2ccc3nc(NC(=O)Nc4ccc(C#N)cc4)cn3n2)n1C` [Compound 408, 1-(4-cyanophenyl)-3-(6-(4-(4-fluorophenyl)-1,2-dimethyl-1H-imidazol-5-yl)imidazo[1,2-b]pyridazin-2-yl)urea], the values for the concentration for half-maximal inhibition (IC50) against CK1ε and on CK1δ were 296 nM and 12.9 nM, respectively.
Consider `O=C(Nc1cn2nc(-c3c(-c4ccc(F)cc4)nc4n3CCNC4)ccc2n1)c1ccncc1` [Compound 456, N-(6-(2-(4-Fluorophenyl)-5,6,7,8-tetrahydroimidazo[1,2-a]pyrazin-3-yl)imidazo[1,2-b]pyridazin-2-yl)isonicotinamide], for which the IC50 amounted to 7 nM against CK1ε and 0.9 nM at CK1δ.
The like results for `Cc1cc(C(=O)Nc2cn3nc(-c4c(-c5ccc(F)cc5)nc(C)n4C)ccc3n2)on1` [Compound 379, N-(6-(4-(4-fluorophenyl)-1,2-dimethyl-1H-imidazol-5-yl)imidazo[1,2-b]pyridazin-2-yl)-3-methyl-5-isoxazole-carboxamide] were, in that order, 4.94 nM and 0.569 nM.
The like results for `O=C(Nc1cn2nc(-c3c(-c4ccc(F)cc4)nc(C4CC4)n3C3CCN(Cc4ccno4)CC3)ccc2n1)c1ccnc(F)c1` [Compound 133, N-(6-(2-cyclopropyl-4-(4-fluorophenyl)-1-(1-(isoxazol-5-ylmethyl)piperidin-4-yl)-1H-imidazol-5-yl)imidazo [1,2-b]pyridazin-2-yl)-2-fluoroisonicotinamide] were, in that order, 13.1 nM and 0.907 nM.
As for `CC(C)(C)C(=O)Nc1cn2nc(-c3c(-c4ccc(F)cc4)ncn3CCO)ccc2n1` [Compound 274, N-(6-(4-(4-fluorophenyl)-1-(2-hydroxyethyl)-1H-imidazol-5-yl)imidazo[1,2-b]pyridazin-2-yl)pivalamide], the concentration for half-maximal inhibition (IC50) at CK1ε was determined as 8.98 nM; against CK1δ it was 0.635 nM.
The like results for `Cc1nc(-c2ccc(F)cc2)c(-c2ccc3nc(NC(=O)c4ccnc(F)c4)cn3n2)n1C` [Compound 320, 2-fluoro-N-(6-(4-(4-fluoro-phenyl)-1,2-dimethyl-1H-imidazol-5-yl)imidazo[1,2-b]pyridazin-2-yl)isonicotin-amide] were, in that order, 1.86 nM and 0.274 nM.
The like results for `O=C(Nc1cn2nc(-c3c(-c4ccc(F)cc4)nc4ccccn34)ccc2n1)C1CCN(c2ccncc2)CC1` [Compound 217, N-(6-(2-(4-fluorophenyl)imidazo[1,2-a]pyridin-3-yl)imidazo[1,2-b]pyridazin-2-yl)-1-(pyridin-4-yl)piperidine-4-carboxamide] were, in that order, 12.2 nM and 0.833 nM.

Broadly, the IC50 is the concentration at which inhibition is half-maximal. Read a high IC50 as lower potency.
